# Test results taken from PMC13286052 (Antimicrobial Agents and Chemotherapy, 2026).
# Entries after “also recorded” stand apart in the source; their conditions may differ.
# Assays:
# VACV [1] = details: cited from earlier work
# VACV [2] = assay type: cell-based, vaccinia virus; details: 48 h
# in vitro = details: human
# HCMV = details: cited from earlier work
# [3] = microsomes; cited from earlier work
# VACV gene expression = assay type: cell-based; details: 10 µM
# VACV [4] = assay type: cell-based, vaccinia virus; details: 10 µM
# in vivo = details: male, CD-1, mouse
# VACV DNA replication = assay type: cell-based, vaccinia virus; details: 10 µM
# MPXV resolvase (Mpr) = assay type: biochemical, monkeypox virus; details: 50 µM
# vaccinia virus (VACV) = assay: microbe, parasite or virus in culture; assay type: cell-based; details: for EC50: Orthopoxvirus vaccinia
# [5] = male, CD-1, mouse, in vivo
# VACV E3 = assay type: cell-based, vaccinia virus; details: 10 µM
# VACV [6] = assay type: cell-based, vaccinia virus
# pUL89C = details: cited from earlier work
# poxvirus resolvases = details: cited from earlier work
smiles,measurement,setting,value
Cc1cc(C2CCCCC2)n(O)c(=O)c1 [Ciclopirox],inhibition of VACV replication,VACV [1],efficient inhibitors of VACV replication
O=C(NCCc1ccc(F)cc1F)c1cn(Cc2ccc(F)cc2)cc(O)c1=O [ZW-2038],late viral gene expression in rhesus colon enteroids,VACV [2],markedly reduced
same,CC50,in vitro,> 500 µM
same,inhibition of HCMV,HCMV,potently inhibited
same,microsomal stability,[3],good
same,cell viability compared to vehicle,HFFs,no significant difference
same,luciferase activity from the early promoter (vEGluc),VACV gene expression,did not affect
same,reporter activity from intermediate promoter (vIGluc),VACV gene expression,significantly diminished
same,reporter activity from late promoter (vLGluc),VACV gene expression,significantly diminished
same,VACV titers in ex vivo mouse lung tissue,VACV [4],consistently reduced
same,bioavailability,"in vivo; Bioavailability (F, %)",4%
same,AUC(0-t),"in vivo; iv, 2 mg/kg",238 ± 54 ng·h/mL
same,Cmax,"in vivo; iv, 2 mg/kg",528 ng/mL
same,MRT last,"in vivo; iv, 2 mg/kg",0.9 ± 0.4 h
same,Tmax,"in vivo; iv, 2 mg/kg",0.08 h
same,clearance,"in vivo; iv, 2 mg/kg",150 mL/min/kg
same,half-life,"in vivo; iv, 2 mg/kg",5 ± 2 h
same,AUC(0-t),"in vivo; po, 20 mg/kg",98 ± 15 ng·h/mL
same,Cmax,"in vivo; po, 20 mg/kg",38 ng/mL
same,MRT last,"in vivo; po, 20 mg/kg",11 ± 2 h
same,Tmax,"in vivo; po, 20 mg/kg",0.2 ± 0.2 h
same,half-life,"in vivo; po, 20 mg/kg",104 ± 159 h
same,viral DNA accumulation,VACV DNA replication,marked reduction
same,Mpr inhibition,MPXV resolvase (Mpr),no Mpr inhibition; also recorded: did not inhibit
same,reduction of Gaussia luciferase activity,vaccinia virus (VACV); 10 µM,more than 99%
same,EC50,vaccinia virus (VACV),0.876 µM
same,"Bioavailability (F, %)",[5],4.1%
same,oral Cmax lower than IV Cmax,[5],14 fold
same,CL,"[5]; po, 20 mg/kg",67 ± 50 mL/min/kg
same,V,"[5]; po, 20 mg/kg",117 ± 46 L/kg
same,E3 levels,VACV E3,did not reduce
same,viral replication (luciferase activity) in human jejunum enteroids,VACV [6],significantly suppressed
same,inhibition of pUL89C,pUL89C,did not inhibit
"O=c1c(-c2ccccc2)c(O)c2cc(-c3cccc(-c4ccccc4)c3)cnc2n1O [Compound 1, reference compound]",inhibition of poxvirus resolvases,poxvirus resolvases,potently inhibits
same,Mpr inhibition,MPXV resolvase (Mpr),nearly complete inhibition
O=C(NNc1nc2cc(F)ccc2n2cccc12)c1cnccn1 [SC144],inhibition of VACV replication,VACV [1],efficient inhibitors of VACV replication
"O=C(NN1C(=O)[C@@H]2[C@@H]3C=C[C@@H]([C@H]4C[C@@H]34)[C@@H]2C1=O)c1ccc(C(F)(F)F)cc1 [Tecovirimat, reference compound]",EC50,vaccinia virus (VACV),0.025 µM
"Nc1ccn([C@@H]2O[C@H](CO)[C@@H](O)[C@@H]2O)c(=O)n1 [AraC, Cytarabine, reference compound]",late viral gene expression in rhesus colon enteroids,VACV [2],markedly reduced
